Results as given in US20020128258A1, “Therapeutical method involving subcutaneous administration of drugs containing cephalotaxine derivatives” (priority 2001, published 2002).
“Also recorded” adds a separate entry of the source. Read-outs that look alike come from different tables or passages of the source.

Key:
patients = settings: continuous infusion 2.5 mg/m2 daily for 10 to 14 days; cited from earlier work
[1] = Comparative pharmacokinetic study in dogs after subcutaneous injection of hydrochloride and base forms of HHT; settings: dog, 0.25 mg/kg single subcutaneous injection
Experimental: (§1) Comparative Pharmacokinetic Study in Dogs After Subcutaneous Injection of 5 mg/m2 of Hydrochloride and Base Forms of HHT
(§2) Number of animals/sex/dose: the same dog was used for each treatment
(§3) treatment 1: 0.25 mg/kg of substance A (HHT-hydrochloride form)
(§4) treatment 2: 0.25 mg/kg of substance A (HHT-hydrochloride form)
(§5) treatment 3: 0.25 mg/kg of substance B (HHT-base form)
(§6) Treatment 3: aqueous solution in 0.5% hydroxyethylcellulose with 0.1% Tween 80
(§7) Analytical method: HPLC with flourimetric detection
(§8) Blood samples were collected at time 0, 30, 60, 120, 240, 480 minutes and 24 hours then HHT concentration was determined in plasma by an HPLC method in using a fluorimetric detection.

Beagle Dog = assay: Subacute toxicity screening of two forms of HHT in one dog; assay type: in vivo; settings: for Clinical examination: clinical signs: single subcutaneous injection (hydrochloride day 5, base day 11); for Tolerance (toxicology conclusion): one dog, CIVI 48 hours or subcutaneous injection
Experimental: Species/Strain: Beagle Dog […]
treatment 1: Intravenous infusion (IV)
Treatments 2 and 3: subcutaneous injection (SQ) […]
treatment 1: continuous Intravenous infusion (CIVI) for 48 hours (days 1 and 2) treatment 2: single subcutaneous (SQ) injection on day 5 treatment 3: single subcutaneous (SQ) injection on day 11
Duration of treatment: see § administration/day […]
treatments 1 and 2: sterile isotonic saline solution

[2] = dog, in vivo, sc
Experimental: as §1, §2, §3, §4, §5, §6, §7, §8

[3] = tested on: patient with acute myeloid leukemia / blastic phase of chronic myelogenous leukemia
Experimental: In addition, this patient was not eligible for bone marrow transplantation. All current good clinical practices and applicable ethical rules were applied. […] Physicians of this institution were experienced with the clinical use of the same formulation by intravenous mode of administration in patients with myeloid leukemias. […] A 5 mg-vial of lyophilized HHT hydrochloride for injection was reconstituted with 2.5 mL of saline water for injection. A volume corresponding to 1 mg of HHT per square meter of body surface area per day divided In two daily subcutaneous injections (2 subcutaneous injections a day) was administered in a short single injection, during a period of nine (9) consecutive days.

COC(=O)C[C@](O)(CCCC(C)(C)O)C(=O)O[C@@H]1C(OC)=C[C@]23CCCN2CCc2cc4c(cc2[C@H]13)OCO4 [HHT, homoharringtonine]
Cardiovascular complications including hypotensive events and arrythmias, patients affected (patients): less than 5 % of patients

COC(=O)C[C@](O)(CCCC(C)(C)O)C(=O)O[C@@H]1C(OC)=C[C@]23CCCN2CCc2cc4c(cc2[C@H]13)OCO4 [HHT-base, reference compound]
Area under the curve (AUC) [1]: 86.5 ng·h/mL
Maximum of concentration in plasma [1]: 18 ng/mL
Time of maximum of concentration [1]: 0.5 h
Clinical examination: clinical signs (Beagle Dog; one Beagle dog, 0.25 mg/kg, 0.25 mg/kg): liquid feces with presence of blood, hypersalivation, decrease in activity, pallor of gingival mucous membranes and decrease in activity; also recorded: liquid feces, hypersalivation, decrease in activity and pallor of gingival mucous membrane
Tolerance (toxicology conclusion) (Beagle Dog; 0.25 mg/kg): good tolerance
Mortality, time after the beginning of the treatment (Beagle Dog; second subcutaneous injection, 0.25 mg/kg, day 11, same dog after earlier treatments): 8 h

COC(=O)C[C@](O)(CCCC(C)(C)O)C(=O)O[C@@H]1C(OC)=C[C@]23CCCN2CCc2cc4c(cc2[C@H]13)OCO4.Cl [HHT hydrochloride]
Body weight loss (Beagle Dog; after treatment 1: 0.25 mg/kg continuous intravenous infusion 48 hours): 1.1 kg
Body weight loss (Beagle Dog; after treatment 2: 0.25 mg/kg single subcutaneous injection on day 5): 0.4 kg
Local tolerance, microscopic examination (histopathology) of skin biopsy (Beagle Dog; biopsy taken on day 6, the day after the SQ injection, 0.25 mg/kg): well tolerated at the local level
Clinical signs following CIVI (Beagle Dog; one Beagle dog, 0.25 mg/kg, continuous intravenous infusion for 48 hours): No clinical signs
Clinical examination: clinical signs (Beagle Dog; one Beagle dog, 0.25 mg/kg): yellowish vomiting, soft feces, transient decrease in activity and hypersalivation
Tolerance (toxicology conclusion) (Beagle Dog; 0.25 mg/kg): good tolerance
Bioavailability of salt form versus base form [2]: considerably higher (triple)
Area under the curve (AUC) ([2]; 0.25 mg/kg): 280 ng·h/mL
Calculated rate AUC HHT-hydrochloride/AUC HHT-base ([2]; 0.25 mg/kg): 3.24
Maximum of concentration in plasma ([2]; 0.25 mg/kg): 112 ng/mL
Time of maximum of concentration ([2]; 0.25 mg/kg): 2 h
Local tolerance at the points of injection ([3]; human, in vivo): no local sign of intolerance
Granulocyte count (peripheral blood counts) ([3]; patient #01, SQ 1 mg/m2/day, 9 days): relatively fast decrease
Myelosuppressive effect, post-induction follow-up ([3]; patient #01, SQ 1 mg/m2/day, typical of intravenous HHT 2.5 mg/m2/day): strong myelosuppressive effect
Clinical improvements compared with examples 3 and 4 ([3]; patient #03, acute myeloid leukemia): Same clinical improvements as those seen in example 3 and 4
